Results reported in patent publication US9833497B2, “Human originated EGF domain proteins and use of the same” (CHENGDU SOURCEBIO LIMITED-LIABILITY COMPANY, priority 2013, dated 2017).

Experiments:
Format in all cases: cell-based
[1] = test system: Aeromonas hydrophila; experiment: MIC against Gram-negative bacteria: Aeromonas hydrophila; details: 5×10^5 CFU/mL
Summary of the method: (§1)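 Bacteria grown in LB at 37° C to McFarland 0.5, resuspended and seeded at 5×10^5 CFU/mL in 96-well plates. Purified human EGF-domain proteins two-fold serially diluted, triplicate wells; cultured at 37° C, shaking 175 rpm. MIC = lowest protein concentration with no growth.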

[2] = test system: Moraxella catarrhalis; experiment: MIC against Gram-negative bacteria: Moraxella catarrhalis; details: 5×10^5 CFU/mL
Summary of the method: as §1

[3] = test system: Klebsiella pneumonia; experiment: MIC against Gram-negative bacteria: Klebsiella pneumonia; details: 5×10^5 CFU/mL
Summary of the method: as §1

[4] = test system: Enterobacter cloacae; experiment: MIC against Gram-negative bacteria: Enterobacter cloacae; details: 5×10^5 CFU/mL
Summary of the method: as §1

[5] = test system: Serratia marcescens; experiment: MIC against Gram-negative bacteria: Serratia marcescens; details: 5×10^5 CFU/mL
Summary of the method: as §1

[6] = test system: E. coli DH5α; experiment: Antibacterial activity: MIC and growth curve against E. coli DH5α in 96-well plate; details: minimal inhibitory concentration against E. coli DH5α; 96-well plate, 5×10^5 CFU/mL, 37° C., judged after 8 h
Summary of the method: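 Log-phase bacteria (OD600 ~0.5) resuspended in LB at 5×10^5 CFU/mL, exposed to recombinant protein at 50, 25, 12.5 μg/mL final in triplicate, 37 °C shaking at 175 rpm. OD600 read every 30 min; MIC is lowest concentration showing no growth.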

[7] = test system: Proteus vulgaris; experiment: MIC against Gram-negative bacteria: Proteus vulgaris; details: 5×10^5 CFU/mL
Summary of the method: as §1

[8] = test system: E. coli BL21; experiment: MIC against Gram-negative bacteria: E. coli BL21; details: 5×10^5 CFU/mL
Summary of the method: as §1

[9] = test system: Citrobacter diversus; experiment: MIC against Gram-negative bacteria: Citrobacter diversus; details: 5×10^5 CFU/mL
Summary of the method: as §1

[10] = test system: Pseudomonas aeruginosa; experiment: MIC against Gram-negative bacteria: Pseudomonas aeruginosa; details: 5×10^5 CFU/mL
Summary of the method: as §1

[11] = test system: Proteus mirabilis; experiment: MIC against Gram-negative bacteria: Proteus mirabilis; details: 5×10^5 CFU/mL
Summary of the method: as §1

[12] = Aeromonas hydrophila, 96-well plate, 37° C., 10 h
[13] = Moraxella catarrhalis, 96-well plate, 37° C., 10 h
[14] = Klebsiella pneumonia, 96-well plate, 37° C., 10 h
[15] = Enterobacter cloacae, 96-well plate, 37° C., 10 h
[16] = Serratia marcescens, 96-well plate, 37° C., 10 h
[17] = Proteus vulgaris, 96-well plate, 37° C., 10 h
[18] = E. coli BL21, 96-well plate, 37° C., 10 h
[19] = Citrobacter diversus, 96-well plate, 37° C., 10 h
[20] = Pseudomonas aeruginosa, 96-well plate, 37° C., 10 h
[21] = Proteus mirabilis, 96-well plate, 37° C., 10 h
[22] = A. hydrophila, 10 h cultivation at 37° C.
[23] = M. catarrhalis, 10 h cultivation at 37° C.
[24] = K. pneumonia, 10 h cultivation at 37° C.
[25] = E. cloacae, 10 h cultivation at 37° C.
[26] = S. marcescens, 10 h cultivation at 37° C.
[27] = P. vulgaris, 10 h cultivation at 37° C.
[28] = E. coli BL21, 10 h cultivation at 37° C.
[29] = C. diversus, 10 h cultivation at 37° C.
[30] = P. aeruginosa, 10 h cultivation at 37° C.
[31] = P. mirabilis, 10 h cultivation at 37° C.
[32] = 10 h cultivation at 37° C., two-fold serial dilution

With “PRT59 (PCTVGDASACLTCAPDNRTRCGTCNTGYMLSQGLCK; listed as Homo sapiens)” the “MIC (μg/mL) A. hydrophila” value [1, 12] was 12.5 µg/mL, the “MIC (μg/mL) M. catarrhalis” value [2, 13] was 12.5 µg/mL and the “MIC (μg/mL) K. pneumonia” value [3, 14] was 50 µg/mL. For the same substance, the “MIC (μg/mL) E. cloacae” value [4, 15] was 25 µg/mL, the “MIC (μg/mL) S. marcescens” value [5, 16] was 12.5 µg/mL and the MIC [6] was 25 µg/mL. The “MIC (μg/mL) P. vulgaris” value [7, 17] was 12.5 µg/mL, the “MIC (μg/mL) E. coli BL21” value [8, 18] was 12.5 µg/mL and the “MIC (μg/mL) C. diversus” value [9, 19] was 25 µg/mL. The “MIC (μg/mL) P. aeruginosa” value [10, 20] was 25 µg/mL and the “MIC (μg/mL) P. mirabilis” value [11, 21] was 25 µg/mL.
For “PRT247 (GAAICQPPCRNGGSCVQPGRCRCPAGWRGDTCQ; listed as Homo sapiens)”, the “MIC (μg/mL) A. hydrophila” value [1, 22] was 12.5 µg/mL, the “MIC (μg/mL) M. catarrhalis” value [2, 23] was 100 µg/mL and the “MIC (μg/mL) K. pneumonia” value [3, 24] was 12.5 µg/mL. For the same substance, the “MIC (μg/mL) E. cloacae” value [4, 25] was 25 µg/mL, the “MIC (μg/mL) S. marcescens” value [5, 26] was 25 µg/mL and the MIC [6] was 12.5 µg/mL. For the same substance, the “MIC (μg/mL) P. vulgaris” value [7, 27] was 12.5 µg/mL, the “MIC (μg/mL) E. coli BL21” value [8, 28] was 12.5 µg/mL and the “MIC (μg/mL) C. diversus” value [9, 29] was 25 µg/mL. For the same substance, the “MIC (μg/mL) P. aeruginosa” value [10, 30] was 12.5 µg/mL and the “MIC (μg/mL) P. mirabilis” value [11, 31] was 25 µg/mL.
In the case of “PRT1186 (KNSSCLPNPCVNGGTCVGSGASFSCICRDGWEGRTCT; listed as Homo sapiens)”, the “MIC A. hydrophila” value [1, 32] was 12.5 µg/mL, the “MIC M. catarrhalis” value [2, 32] was 50 µg/mL and the “MIC K. pneumonia” value [3, 32] was 25 µg/mL. For the same substance, the “MIC E. cloacae” value [4, 32] was 50 µg/mL, the “MIC S. marcescens” value [5, 32] was 12.5 µg/mL and the MIC [6] was 50 µg/mL. The “MIC P. vulgaris” value [7, 32] was 50 µg/mL, the “MIC E. coli BL21” value [8, 32] was 25 µg/mL and the “MIC C. diversus” value [9, 32] was 25 µg/mL. The “MIC P. aeruginosa” value [10, 32] was 12.5 µg/mL and the “MIC P. mirabilis” value [11, 32] was 12.5 µg/mL.
In the case of “PRT1301 (DNDDCVAHKCRHGAQCVDTINGYTCTCPQGFSGPFCE; listed as Homo sapiens)”, the “MIC against A. hydrophila” value [1, 12] was 25 µg/mL, the “MIC against M. catarrhalis” value [2, 13] was 50 µg/mL and the “MIC against K. pneumonia” value [3, 14] was 12.5 µg/mL. For the same substance, the “MIC against E. cloacae” value [4, 15] was 50 µg/mL, the “MIC against S. marcescens” value [5, 16] was 50 µg/mL and the MIC [6] was 12.5 µg/mL. The “MIC against P. vulgaris” value [7, 17] was 25 µg/mL, the “MIC against E. coli BL21” value [8, 18] was 12.5 µg/mL and the “MIC against C. diversus” value [9, 19] was 12.5 µg/mL. For the same substance, the “MIC against P. aeruginosa” value [10, 20] was 12.5 µg/mL and the “MIC against P. mirabilis” value [11, 21] was 12.5 µg/mL.
In the case of “PRT191 (PCLRKYKDFCIHGECKYVKELRAPSCICHPGYHGERCH; listed as Homo sapiens)”, the “MIC (μg/mL) A. hydrophila” value [1, 22] was 12.5 µg/mL, the “MIC (μg/mL) M. catarrhalis” value [2, 23] was 12.5 µg/mL and the “MIC (μg/mL) K. pneumonia” value [3, 24] was 12.5 µg/mL. The “MIC (μg/mL) E. cloacae” value [4, 25] was 25 µg/mL, the “MIC (μg/mL) S. marcescens” value [5, 26] was 12.5 µg/mL and the MIC [6] was 12.5 µg/mL. The “MIC (μg/mL) P. vulgaris” value [7, 27] was 50 µg/mL, the “MIC (μg/mL) E. coli BL21” value [8, 28] was 12.5 µg/mL and the “MIC (μg/mL) C. diversus” value [9, 29] was 25 µg/mL. For the same substance, the “MIC (μg/mL) P. aeruginosa” value [10, 30] was 12.5 µg/mL and the “MIC (μg/mL) P. mirabilis” value [11, 31] was 12.5 µg/mL.
“PRT673 (DVDECLDESNCRNGVCENTRGGYRCACTPPAEYSPAQRQCL; listed as Homo sapiens)” was tested, and the “MIC A. hydrophila” value ([1]; 96-well plate, 37° C., 10 h) was 50 µg/mL, the “MIC M. catarrhalis” value ([2]; 96-well plate, 37° C., 10 h) was 25 µg/mL and the “MIC K. pneumonia” value ([3]; 96-well plate, 37° C., 10 h) was 50 µg/mL. For the same substance, the “MIC E. cloacae” value ([4]; 96-well plate, 37° C., 10 h) was 25 µg/mL, the “MIC S. marcescens” value ([5]; 96-well plate, 37° C., 10 h) was 50 µg/mL and the MIC [6] was 50 µg/mL. For the same substance, the “MIC P. vulgaris” value ([7]; 96-well plate, 37° C., 10 h) was 12.5 µg/mL, the “MIC E. coli BL21” value ([8]; 96-well plate, 37° C., 10 h) was 12.5 µg/mL and the “MIC C. diversus” value ([9]; 96-well plate, 37° C., 10 h) was 25 µg/mL. For the same substance, the “MIC P. aeruginosa” value ([10]; 96-well plate, 37° C., 10 h) was 50 µg/mL and the “MIC P. mirabilis” value ([11]; 96-well plate, 37° C., 10 h) was 50 µg/mL.
For “PRT143 (PRNPCRMSCQNHGRLNISTCHCHCPPGYTGRYCQ; listed as Homo sapiens)”, the “MIC (μg/mL) A. hydrophila” value [1, 12] was 12.5 µg/mL, the “MIC (μg/mL) M. catarrhalis” value [2, 13] was 50 µg/mL and the “MIC (μg/mL) K. pneumonia” value [3, 14] was 12.5 µg/mL. For the same substance, the “MIC (μg/mL) E. cloacae” value [4, 15] was 12.5 µg/mL, the “MIC (μg/mL) S. marcescens” value [5, 16] was 25 µg/mL and the MIC [6] was 12.5 µg/mL. The “MIC (μg/mL) P. vulgaris” value [7, 17] was 12.5 µg/mL, the “MIC (μg/mL) E. coli BL21” value [8, 18] was 12.5 µg/mL and the “MIC (μg/mL) C. diversus” value [9, 19] was 12.5 µg/mL. The “MIC (μg/mL) P. aeruginosa” value [10, 20] was 12.5 µg/mL and the “MIC (μg/mL) P. mirabilis” value [11, 21] was 25 µg/mL.
